Test results from patent US10501449B2 (priority 2018, dated 2019).

Key:
[1] = target: hROMK (human Kir1.1) (Homo sapiens (Human), UniProt P48048); experiment: cell-based; conditions: CHO T-Rex hROMK stable cell line; thallium flux; 10-point concentration response curve; read-out: Human ROMK Th Flux IC50
[2] = target: hERG channels (Homo sapiens (Human), UniProt Q12809); experiment: hERG Manual Patch Clamp Assay; assay type: cell-based; conditions: human, HEK 293 cells stably expressing hERG channels, pH 7.4, 1 uM, read-out: hERG EP % Inh @ 1 uM
Sequence of hERG channels (Q12809 whole entry): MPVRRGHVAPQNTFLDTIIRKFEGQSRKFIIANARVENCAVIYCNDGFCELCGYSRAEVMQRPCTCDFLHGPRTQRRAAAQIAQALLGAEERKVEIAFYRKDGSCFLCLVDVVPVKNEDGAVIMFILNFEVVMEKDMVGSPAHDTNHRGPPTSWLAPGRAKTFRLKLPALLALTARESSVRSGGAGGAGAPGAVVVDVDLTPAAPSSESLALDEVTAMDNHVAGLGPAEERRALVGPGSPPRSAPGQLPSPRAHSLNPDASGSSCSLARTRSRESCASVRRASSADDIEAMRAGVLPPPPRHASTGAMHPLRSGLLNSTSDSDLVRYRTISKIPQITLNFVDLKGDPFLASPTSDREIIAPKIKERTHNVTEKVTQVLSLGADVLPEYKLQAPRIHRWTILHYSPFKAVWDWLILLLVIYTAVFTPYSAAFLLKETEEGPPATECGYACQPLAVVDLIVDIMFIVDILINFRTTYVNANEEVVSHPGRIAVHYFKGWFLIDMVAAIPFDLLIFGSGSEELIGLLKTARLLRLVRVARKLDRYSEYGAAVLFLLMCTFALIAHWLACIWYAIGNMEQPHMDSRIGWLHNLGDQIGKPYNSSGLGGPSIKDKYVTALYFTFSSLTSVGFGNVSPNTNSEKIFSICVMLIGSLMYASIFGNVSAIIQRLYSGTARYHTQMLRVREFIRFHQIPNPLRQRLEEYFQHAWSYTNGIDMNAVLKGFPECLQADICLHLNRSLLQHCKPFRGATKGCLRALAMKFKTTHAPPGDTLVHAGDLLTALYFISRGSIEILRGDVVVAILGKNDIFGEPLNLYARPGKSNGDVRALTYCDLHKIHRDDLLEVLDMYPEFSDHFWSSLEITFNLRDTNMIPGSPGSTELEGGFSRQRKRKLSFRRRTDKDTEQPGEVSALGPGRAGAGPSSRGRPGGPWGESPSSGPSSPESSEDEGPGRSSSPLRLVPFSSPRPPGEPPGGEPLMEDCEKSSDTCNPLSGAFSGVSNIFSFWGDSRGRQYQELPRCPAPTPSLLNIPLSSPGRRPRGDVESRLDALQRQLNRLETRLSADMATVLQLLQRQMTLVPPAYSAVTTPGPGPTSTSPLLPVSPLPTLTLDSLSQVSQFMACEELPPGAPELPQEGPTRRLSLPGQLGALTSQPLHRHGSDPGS

Sequence of hROMK (human Kir1.1) (P48048 whole entry): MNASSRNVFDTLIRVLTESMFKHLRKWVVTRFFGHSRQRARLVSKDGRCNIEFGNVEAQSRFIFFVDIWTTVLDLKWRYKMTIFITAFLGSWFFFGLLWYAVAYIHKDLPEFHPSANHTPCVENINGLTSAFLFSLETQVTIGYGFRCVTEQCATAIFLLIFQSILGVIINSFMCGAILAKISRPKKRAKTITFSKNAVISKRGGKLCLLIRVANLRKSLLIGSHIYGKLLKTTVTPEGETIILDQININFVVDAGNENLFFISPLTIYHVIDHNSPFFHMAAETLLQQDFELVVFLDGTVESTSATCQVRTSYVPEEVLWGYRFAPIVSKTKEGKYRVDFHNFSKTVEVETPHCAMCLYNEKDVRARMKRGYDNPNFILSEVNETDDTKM

Structure (SMILES) | IC50 [1] | inhibition at 1 µM [2]
Cc1c([C@@H]2CN(Cc3ccc(-n4cc(C#N)cn4)nc3)CCN2)ccc2c1COC2=O [Example 64-I, (R)-1-(5-((3-(4-methyl-1-oxo-1,3-dihydroiso-benzofuran-5-yl)piper-azin-1-yl)methyl)pyri-din-2-yl)-1H-pyrazole-4-carbonitrile] | 0.0088 µM | 45%
Cc1cc(-n2cc(CN3CCC(C)(O)C(c4ccc5c(c4C)COC5=O)C3)cn2)ncc1C#N (single isomer, unassigned) [Example 114-I, 6-(4-((4-hydroxy-4-methyl-3-(4-methyl-1-oxo-1,3-dihydroisobenzofuran-5-yl)piperidin-1-yl)methyl)-1H-pyrazol-1-yl)-4-methylnicotinonitrile] | 0.032 µM | 4.2%
Cc1c([C@@H]2CN(Cc3cnn(-c4ccc(C#N)cc4)c3)CCO2)ccc2c1COC2=O [Example 40-I, (R)-4-(4-((2-(4-methyl-1-oxo-1,3-dihydroiso-benzofuran-5-yl)morpho-lino)methyl)-1H-pyrazol-1-yl)benzonitrile] | 0.027 µM | 54%
Cc1cc(-n2cc(CN3CCN(C)[C@H](c4ccc5c(c4C)COC5=O)C3)cn2)ncc1C#N [Example 70-I, (R)-4-methyl-6-(4-((4-methyl-3-(4-methyl-1-oxo-1,3-dihydroisobenzo-furan-5-yl)piperazin-1-yl)methyl)-1H-pyra-zol-1-yl)nicotinonitrile] | 0.059 µM | 8.4%
COc1cc(-n2cc(CCN3CCO[C@H](c4ccc5c(c4C)COC5=O)C3)cn2)ncc1C#N [Example 11-I, (R)-4-methoxy-6-(4-(2-(2-(4-methyl-1-oxo-1,3-dihydroisobenzofuran-5-yl)morpholino)ethyl)-1H-pyrazol-1-yl)nicotinonitrile] | 0.03 µM | 40%
Cc1c([C@@H]2CN(Cc3ccc(-n4cc(C#N)c(OC(F)F)n4)nc3)CCN2)ccc2c1COC2=O [Example 219-I, (R)-3-(difluoromethoxy)-1-(5-((3-(4-methyl-1-oxo-1,3-dihydroisobenzofuran-5-yl)piperazin-1-yl)methyl)pyridin-2-yl)-1H-pyrazole-4-carbonitrile] | 0.021 µM | 75%
Cc1cc(-n2cc(CN3C[C@@H](c4ccc5c(c4C)COC5=O)OC3=O)cn2)ncc1C#N [Example 9-I, (R)-4-methyl-6-(4-((5-(4-methyl-1-oxo-1,3-dihydroisobenzofuran-5-yl)-2-oxooxazolidin-3-yl)methyl)-1H-pyrazol-1-yl)nicotinonitrile] | 0.044 µM | 47%
COc1c(CN2CCO[C@H](c3ccc4c(c3C)COC4=O)C2)cnn1-c1cc(C)c(C#N)cn1 [Example 26-I, (R)-6-(5-methoxy-4-((2-(4-methyl-1-oxo-1,3-dihydroisobenzofuran-5-yl)morpholino)methyl)-1H-pyrazol-1-yl)-4-methylnicotinonitrile] | 0.069 µM | 20%
Cc1cc(-n2cc(CN3CC[C@@H](O)[C@H](c4ccc5c(c4C)COC5=O)C3)c(C(F)F)n2)ncc1C#N [Example 245-I, 6-(3-(difluoromethyl)-4-(((3R,4R)-4-hydroxy-3-(4-methyl-1-oxo-1,3-dihydroisobenzofuran-5-yl)piperidin-1-yl)methyl)-1H-pyrazol-1-yl)-4-methylnicotinonitrile] | 0.018 µM | 17%
Cc1c([C@@H]2CN(Cc3cnn(-c4cc(OC(C)C)c(C#N)cn4)c3)CCN2)ccc2c1COC2=O [Example 140-I, (R)-4-isopropoxy-6-(4-((3-(4-methyl-1-oxo-1,3-dihydroisobenzofuran-5-yl)piperazin-1-yl)methyl)-1H-pyrazol-1-yl)nicotinonitrile] | 0.026 µM | 49%
COc1cc(N2CC(CN3C[C@@H](c4ccc5c(c4C)COC5=O)N[C@@H](C)C3)N(C)C2=O)ncc1C#N (stereo partly drawn) [Example 274-I, 4-methoxy-6-(3-methyl-4-(((3S,5R)-3-methyl-5-(4-methyl-1-oxo-1,3-dihydroisobenzofuran-5-yl)piperazin-1-yl)methyl)-2-oxoimidazolidin-1-yl)nicotinonitrile] | 0.058 µM | 43%
Cc1cc(N2CCOC2=O)cc(-n2cc(CN3C[C@@H](c4ccc5c(c4C)COC5=O)N[C@@H](C)C3)cn2)n1 [Example 251-I, 3-(2-methyl-6-(4-(((3S,5R)-3-methyl-5-(4-methyl-1-oxo-1,3-dihydroisobenzofuran-5-yl)piperazin-1-yl)methyl)-1H-pyrazol-1-yl)pyridin-4-yl)oxazolidin-2-one] | 0.061 µM | 7.6%
Cc1c([C@@H]2CN(Cc3cnn(-c4ccnc(C(F)(F)F)c4)c3)C[C@H](C)N2)ccc2c1COC2=O [Example 128-I, 4-methyl-5-((2R,6S)-6-methyl-4-((1-(2-(trifluoromethyl)pyridin-4-yl)-1H-pyrazol-4-yl)methyl)piperazin-2-yl)isobenzofuran-1(3H)-one] | 0.066 µM | 19%
Cc1c([C@@H]2CN(Cc3cnn(-c4cc(C#N)ccn4)c3)CCN2)ccc2c1COC2=O [Example 198-I, (R)-2-(4-((3-(4-methyl-1-oxo-1,3-dihydroisobenzofuran-5-yl)piperazin-1-yl)methyl)-1H-pyraozl-1-yl)isonicotinonitrile] | 0.083 µM | 0%
COc1cc(-n2cc(CN3C[C@@H](c4ccc5c(c4C)COC5=O)N[C@@H](C)C3)n(C)c2=O)ccn1 [Example 275-I, 1-(2-methoxypyridin-4-yl)-3-methyl-4-(((3S,5R)-3-methyl-5-(4-methyl-1-oxo-1,3-dihydroisobenzofuran-5-yl)piperazin-1-yl)methyl)-1,3-dihydro-2H-imidazol-2-one] | 0.042 µM | 8.4%
Cc1c([C@@H]2CN(Cc3cnc(-n4cc(C#N)c(C(F)F)n4)nc3)CCN2)ccc2c1COC2=O [Example 229-I, (R)-3-(difluoromethyl)-1-(5-((3-(4-methyl-1-oxo-1,3-dihydroisobenzofuran-5-yl)piperazin-1-yl)methyl)pyrimidin-2-yl)-1H-pyrazole-4-carbonitrile] | 0.021 µM | 25%
Cc1cn(-c2ccc(CN3CCN[C@H](c4ccc5c(c4C)COC5=O)C3)cn2)nc1C#N [Example 242-I, (R)-4-methyl-1-(5-((3-(4-methyl-1-oxo-1,3-dihydroisobenzofuran-5-yl)piperazin-1-yl)methyl)pyridin-2-yl)-1H-pyrazole-3-carbonitrile] | 0.01 µM | 36%
Cc1cc(-n2cc(CN3CC(c4ccc5c(c4C)COC5=O)NCC3CO)cn2)ncc1C#N (single isomer, unassigned) [Example 123-I, 6-(4-((2-(hydroxymethyl)-5-(4-methyl-1-oxo-1,3-dihydroisobenzofuran-5-yl)piperazin-1-yl)methyl)-1H-pyrazol-1-yl)-4-methylnicotinonitrile] | 0.074 µM | 7.2%
Cc1cc(-n2cc(CN3CC[C@@H](O)[C@H](c4ccc5c(c4C)COC5=O)C3)nn2)ncc1C#N [Example 84-I, 6-(4-(((3R,4R)-4-hydroxy-3-(4-methyl-1-oxo-1,3-dihydroisobenzofuran-5-yl)piperidin-1-yl)methyl)-1H-1,2,3-triazol-1-yl)-4-methylnicotinonitrile] | 0.052 µM | 6.7%
Cc1nc(-n2cc(CN3C[C@@H](c4ccc5c(c4C)COC5=O)N[C@@H](C)C3)cn2)ncc1C#N [Example 96-I, 4-methyl-2-(4-(((3S,5R)-3-methyl-5-(4-methyl-1-oxo-1,3-dihydroisobenzofur-an-5-yl)piperazin-1-yl)methyl)-1H-pyrazol-1-yl)pyrimidine-5-carbonitrile] | 0.027 µM | 9.6%
COC1CC(c2ccc3c(c2C)COC3=O)CN(Cc2cnn(-c3cc(C)c(C#N)cn3)c2)C1 (single isomer, unassigned) [Example 200-II, 6-(4-((3-methoxy-5-(4-methyl-1-oxo-1,3-dihydroisobenzofuran-5-yl)piperidin-1-yl)methyl)-1H-pyrazol-1-yl)-4-methylnicotinonitrile] | 0.064 µM | 27%
COc1cc(-n2cc(CN3C[C@@H](c4ccc5c(c4C)COC5=O)N[C@@H](C)C3)nn2)nc(C)c1C#N [Example 86-I, 4-methoxy-2-methyl-6-(4-(((3S,5R)-3-methyl-5-(4-methyl-1-oxo-1,3-dihydroisobenzofur-an-5-yl)piperazin-1-yl)methyl)-1H-1,2,3-triazol-1-yl)nicotinonitrile] | 0.064 µM | 8.8%
Cc1cn(-c2ncc(CN3CCN[C@H](c4ccc5c(c4C)COC5=O)C3)cc2F)cn1 [Example 144-I, (R)-5-(4-((5-fluoro-6-(4-mehtyl-1H-imidazol-1-yl)pyridin-3-yl)methyl)piperazin-2-yl)-4-methylisobenzofuran-1(3H)-one] | 0.024 µM | 7.8%
Cc1cn(-c2cc(C)c(CN3CCN[C@H](c4ccc5c(c4C)COC5=O)C3)cn2)cn1 [Example 141-I, (R)-4-methyl-5-(4-((4-methyl-6-(4-methyl-1H-imidazol-1-yl)pyridin-3-yl)methyl)piperazin-2-yl)isobenzofuran-1(3H)-one] | 0.069 µM | 7.1%
Cc1cc(-n2cc(CN3CC(c4ccc5c(c4C)COC5=O)NC(C(F)F)C3)cn2)ncc1C#N (single isomer, unassigned) [Example 205-I, 6-(4-((3-(difluoromethyl)-5-(4-methyl-1-oxo-1,3-dihydroisobenzofuran-5-yl)piperazin-1-yl)methyl)-1H-pyrazol-1-yl)-4-methylnicotinonitrile] | 0.071 µM | 10%
COc1cc(N2CC(CN3C[C@@H](c4ccc5c(c4C)COC5=O)N[C@@H](C)C3)CC2=O)ncc1C#N (single isomer, unassigned) [Example 170-I] | 0.039 µM | 26%
